Assay results as given in patent US7838512B2, “DNA damaging agents in combination with tyrosine kinase inhibitors” (Arch Development Corporation, priority 1994, dated 2010).

Experiments:
tumor [1] = conditions: alone, in vivo; cited from earlier work
pancreatic cancer cell = conditions: in vitro; cited from earlier work
p56/p53^lyn [2] = test: Anti-Lyn immune complex kinase assay from irradiated (200 cGy) or H2O2-treated HL-60 cells; format: cell-based, human; conditions: for effect on X-ray-induced p56/p53^lyn activity: HL-60 cells, 200 cGy, harvested at 12 hours
Protocol: HL-60 myeloid leukemia cells were grown in RPMI-1640 medium containing 15% heat-inactivated fetal bovine serum (FBS) supplemented with 100 units/ml penicillin, […], 2 mM L-glutamine, 1 mM sodium pyruvate and 1 mM non-essential amino acids. Cells in logarithmic growth phase were suspended in complete RPMI-1640 medium with 0.5% FBS 18 hours prior to irradiation.
Irradiation was performed at room temperature using a Gammacell 1000 (Atomic Energy of Canada, Ottawa) under aerobic conditions with a ^137Cs source emitting at a fixed dose rate of 13.3 Gy/min as determined by dosimetry.
Cells (2−3×10^7) were washed twice with ice cold phosphate buffered saline (PBS) and lysed in 2 ml of lysis buffer (20 mM Tris, pH 7.4, 150 mM NaCl, 1% NP-40, 1 mM sodium vanadate, 1 mM phenylmethylsulfonyl fluoride, 1 mM DTT, and […] of leupeptin and aprotinin). After incubation on ice for 30 min, insoluble material was removed by centrifugation at 1400 rpm for 10 min at 4° C. Soluble proteins were precleared by incubation with 5 mg/ml rabbit anti-mouse IgG for 1 hour at 4° C. and then addition of protein A sepharose for 30 min.
The supernatants were incubated with 2.5 μl of anti-human Fyn, 2 μl of anti-human Lyn, 3 μl of anti-human Lyk (N-terminal) or 3 μl of anti-Src antibody (UBI, Lake Placid, N.Y.) for 1 hour at 4° C. followed by 30 min with protein A-sepharose. The immune complexes were washed three times with lysis buffer, once with kinase buffer (20 mM HEPES, pH 7.0, 10 mM MnCl2 and 10 mM MgCl2) and resuspended in 30 μl of kinase buffer containing 1 mCi/ml [γ-^32P]ATP (3000 Ci/mmol; NEN, Boston, Mass.). The reaction was incubated for 10 min at 30° C. and terminated by the addition of 2× SDS sample buffer. The proteins were resolved in 10% SDS-polyacrylamide gels, dried and analyzed by autoradiography.
Immune complexes as prepared for autophosphorylation assays were washed three times with lysis buffer and once with kinase buffer. The beads were resuspended in 30 μl of kinase buffer containing 1 mCi/ml [γ-^32p]ATP and 3-5 mg of acid treated enolase (Sigma). The reaction was incubated for 10 min at 30° C. and terminated by the addition of 2× SDS sample buffer. The proteins were resolved by 10% SDS-PAGE. Equal loading of the enolase was determined by staining with Coomassie blue. The gels were then destained and analyzed by autoradiography. Radioactive bands were also excised from the gel and -quantitated by scintillation counting.

protein-tyrosine kinase = conditions: compared with erbstatin; cited from earlier work
p34^cdc2 [3] = test: Anti-cdc2 immunoprecipitates assayed for phosphorylation of H1 histone; format: cell-based; conditions: MMC-treated cells
p56/p53^lyn and p34^cdc2 = test: Association of p56/p53^lyn with p34^cdc2 (GST-Lyn binding, coimmunoprecipitation); format: cell-based, human; conditions: HL-60 cells, 10^−5 M MMC, 1 h
Protocol: Coimmunoprecipitation. Immunoprecipitations were performed with anti-p34^cdc2 at 5 mg/ml cell lysate. Immune complexes were collected on protein A-Sepharose beads (Pharmacia), washed three times with lysis buffer and twice with kinase buffer, resuspended in kinase buffer and then incubated for 10 min at 30° C. in the presence of 1 mCi/ml [γ-^32P]ATP. One aliquot of the kinase reaction was subjected to SDS-PAGE and autoradiography. The other aliquot was washed in lysis buffer to remove free ATP and then boiled in 20 mM Tris-HCl, pH 8.0 containing 0.5% SDS and 1 mM DTT to disrupt protein-protein interaction. After dilution to 0.1% SDS, a secondary immunoprecipitation was then performed by adding anti-Lyn antibody and protein A-Sepharose beads. The anti-Lyn immunoprecipitates were then subjected to SDS-PAGE and autoradiography.
Fusion protein binding assays. The plasmid encoding a glutathione S-transferase (GST)-Lyn (amino acids 1 to 243) fusion protein was obtained from T. Pawson, Toronto, Canada and transfected into E. coli DH5a (Pleiman et al., 1993). The fusion protein was induced with IPTG, purified by affinity chromatography using glutathione-Sepharose beads (Pharmacia) and equilibrated in lysis buffer. HL-60 cell lysates were incubated with 50 mg immobilized GST or GST-Lyn for 2 h at 4° C. […]

p56/p53^lyn [4] = test: p56/p53^lyn activity in U-937 myeloid leukemia cells; format: cell-based
p56/p53^lyn [5] = test: Phosphorylation of cdc2 peptides by anti-Lyn immune complexes; format: cell-based, human; conditions: HL-60 cells, MMC 1 h
Protocol: Immune complexes were also resuspended in […] kinase buffer containing 1 mCi/ml [γ-^32P]ATP and either 100 mM cdc2 peptide (amino acids 7 to 20; […]; SEQ ID NO:1) or 100 mM mutated cdc2 peptide with Phe-15 substituted for Tyr-15 ([…]; SEQ ID NO:2). The reactions were incubated for 15 min at 30° C. and terminated by spotting on P81 phosphocellulose discs (GIBCO/BRL). The discs were washed twice with 1% phosphoric acid and twice with water before analysis by liquid scintillation counting.

p56/p53^lyn [6] = test: Immunoblot of anti-Lyn immunoprecipitates (anti-Lyn, anti-P-Tyr); format: cell-based, human; conditions: HL-60 cells, MMC 1 h versus control
Protocol: (§1) Immunoblot analysis. Immune complexes bound to protein A-sepharose were prepared as for the autophosphorylation assays. Proteins were separated in 10% SDS-polyacrylamide gels and transferred to nitrocellulose paper. The residual binding sites were blocked by incubating the filters in 5% dry milk in PBST (PBS/0.05% Tween-20) for 1 h at room temperature. The blots were subsequently incubated with anti-cdc2 or anti-phosphotyrosine (anti-P-Tyr; MAb 4G10, UBI). After washing twice with PBST, the filters were incubated for 1 h at room temperature with anti-mouse IgG (whole molecule) peroxidase conjugate (Sigma) in 5% milk/PBST. The filters were then washed and the antigen-antibody complexes visualized by the ECL detection system (Amersham, Arlington Heights, Ill.).

p34^cdc2 [7] = test: Immunoprecipitation of p34^cdc2 and immunoblotting with anti-P-Tyr / anti-cdc2; format: cell-based, human; conditions: HL-60 cells, MMC 1 h
Protocol: as §1

p56/p53^lyn [8] = test: MMC added directly to the kinase reaction of anti-Lyn immune complexes from untreated HL-60 cells; format: biochemical, human; conditions: 10^−5 M MMC added to kinase reaction, 15 min
Protocol: FIG. 4A, FIG. 4B and FIG. 4C. MMC-induced p56/p53^lyn activation is sensitive to tyrosine kinase inhibitors and is not a direct effect. […] Anti-Lyn immunoprecipitates were analyzed for phosphorylation of p56/p53^lyn and enolase. […] Lysates from untreated HL-60 cells were immunoprecipitated with anti-Lyn. […] The reaction was analyzed for phosphorylation of p56/p53^lyn and enolase.
The supernatant fraction was incubated with pre-immune rabbit serum, anti-Fyn, anti-Lyn, anti-Src (UBI, Lake Placid, N.Y.) or anti-cdc2 (sc-54, Santa Cruz Biotechnology, Santa Cruz, Calif.) antibodies for 1 h at 4° C. followed by 30 min after addition of protein A-sepharose. The immune complexes were washed three times with lysis buffer and once with kinase buffer (20 mM HEPES, pH 7.0, 10 mM MnCl2 and 10 mM MgCl2) and resuspended in […] of kinase buffer containing 1 mCi/ml [γ-^32P]ATP (3000 Ci/mmol; NEN, Boston, Mass.) with and without 5-8 mg of acid-treated enolase (Sigma). The reaction was incubated for 15 min at 30° C. and terminated by the addition of 2× SDS sample buffer. The proteins were separated in 10% SDS-polyacrylamide gels and analyzed by autoradiography. Radioactive bands were excised from certain gels and quantitated by scintillation counting.

p56/p53^lyn [9] = test: Anti-Lyn immune complex kinase assay (autophosphorylation and enolase phosphorylation) from drug-treated HL-60 cells; format: cell-based, human; conditions: for effect of pretreatment on MMC-stimulated p56/p53^lyn activity: 10^−5 M inhibitor 1 h, then MMC 1 h
pp60^c-src = test: Anti-Src immune complex kinase assay from MMC-treated HL-60 cells; format: cell-based, human; conditions: 10^−5 M MMC, 1 h
p59^fyn = test: Anti-Fyn immune complex autophosphorylation assay from MMC-treated HL-60 cells; format: cell-based, human; conditions: 10^−5 M MMC, 1 h
[10] = test system: c-jun and EGR-1 gene expression; conditions: irradiated HL-60 cells; cited from earlier work
tumor [11] = conditions: nude mice; cited from earlier work
cancer cell = conditions: in vitro; cited from earlier work
pp110^gag-fes = conditions: cited from earlier work
pp60^v-src = conditions: cited from earlier work
EGF-stimulated receptors = EGF-stimulated receptors (Homo sapiens, UniProt P00533); conditions: intact cells, time and dose dependent; cited from earlier work
Sequence of EGF-stimulated receptors (P00533 25-1210): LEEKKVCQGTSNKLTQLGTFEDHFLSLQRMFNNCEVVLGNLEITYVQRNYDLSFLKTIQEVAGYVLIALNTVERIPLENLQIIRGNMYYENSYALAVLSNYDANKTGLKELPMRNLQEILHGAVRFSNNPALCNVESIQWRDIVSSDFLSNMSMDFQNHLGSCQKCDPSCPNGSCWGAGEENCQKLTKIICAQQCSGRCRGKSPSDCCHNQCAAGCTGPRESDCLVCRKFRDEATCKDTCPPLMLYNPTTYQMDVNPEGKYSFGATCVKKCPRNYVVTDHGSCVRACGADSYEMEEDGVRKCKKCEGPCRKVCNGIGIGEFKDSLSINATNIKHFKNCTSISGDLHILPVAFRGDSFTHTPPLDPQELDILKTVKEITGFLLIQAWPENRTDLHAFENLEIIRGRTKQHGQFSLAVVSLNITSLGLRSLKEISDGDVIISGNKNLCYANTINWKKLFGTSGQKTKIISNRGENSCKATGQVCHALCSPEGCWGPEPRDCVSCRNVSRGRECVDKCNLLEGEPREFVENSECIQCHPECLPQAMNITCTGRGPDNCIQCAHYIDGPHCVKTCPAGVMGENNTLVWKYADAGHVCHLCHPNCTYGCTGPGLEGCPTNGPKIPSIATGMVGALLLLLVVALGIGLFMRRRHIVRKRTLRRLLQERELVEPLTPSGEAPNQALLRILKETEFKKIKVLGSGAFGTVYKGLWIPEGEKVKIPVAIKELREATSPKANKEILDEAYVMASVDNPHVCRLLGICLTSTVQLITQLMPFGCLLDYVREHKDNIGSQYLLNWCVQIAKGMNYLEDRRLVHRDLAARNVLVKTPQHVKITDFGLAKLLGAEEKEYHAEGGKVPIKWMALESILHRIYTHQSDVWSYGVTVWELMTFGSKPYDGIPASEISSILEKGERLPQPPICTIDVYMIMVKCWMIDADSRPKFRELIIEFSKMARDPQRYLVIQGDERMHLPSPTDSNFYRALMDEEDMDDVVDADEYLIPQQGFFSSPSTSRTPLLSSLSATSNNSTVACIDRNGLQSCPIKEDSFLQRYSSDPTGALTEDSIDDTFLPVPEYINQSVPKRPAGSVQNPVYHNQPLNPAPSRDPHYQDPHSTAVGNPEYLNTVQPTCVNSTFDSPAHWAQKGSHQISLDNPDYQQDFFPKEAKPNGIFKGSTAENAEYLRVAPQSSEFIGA

SMILES: O=C1NC(=O)c2cc(Nc3ccccc3)c(Nc3ccccc3)cc21 [4,5-Dianilinophthalimide]
- antitumor activity (tumor [1]): in vivo antitumor activity

SMILES: CC(C)(C)c1cc(C=C(C#N)C#N)cc(C(C)(C)C)c1O [AG17]
- pancreatic cancer cell growth (pancreatic cancer cell): inhibit pancreatic cancer cell growth

SMILES: N#CC(C#N)=Cc1ccc(O)c(O)c1 [AG18]
- pancreatic cancer cell growth (pancreatic cancer cell): inhibit pancreatic cancer cell growth

SMILES: OO [H2O2]
- phosphorylation of p56/p53^lyn or enolase (p56/p53^lyn [2]; HL-60 cells treated with 50 mM H2O2): did not show a detectable increase

SMILES: O=C(O)c1cc(N(Cc2ccccc2O)Cc2cc(O)ccc2O)ccc1O [Lavendustin A]
- inhibitory potency relative to erbstatin (protein-tyrosine kinase): about 50 times

SMILES: CO[C@@]12[C@H](COC(N)=O)C3=C(C(=O)C(C)=C(N)C3=O)N1C[C@@H]1N[C@@H]12 [MMC, Mitomycin C]
- p34^cdc2 kinase activity (H1 histone phosphorylation) (p34^cdc2 [3]): loss of kinase activity
- interaction between p56/p53^lyn and p34^cdc2 (p56/p53^lyn and p34^cdc2): induces an interaction
- p56/p53^lyn activity (p56/p53^lyn [4]): increases in p56/p53^lyn activity
- phosphorylation of mutated cdc2 peptide (Tyr-15 to Phe-15) by anti-Lyn complexes (p56/p53^lyn [5]): little phosphorylation
- stimulation of cdc2 peptide phosphorylation by anti-Lyn immune complexes (p56/p53^lyn [5]; versus control cells, cdc2 peptide amino acids 7 to 20): ~2 fold
- tyrosine phosphorylation of p56/p53^lyn (anti-P-Tyr immunoblot) (p56/p53^lyn [6]): increase in tyrosine phosphorylation
- tyrosine phosphorylation of p34^cdc2 (anti-P-Tyr reactivity of anti-cdc2 precipitates) (p34^cdc2 [7]): increase in reactivity
- kinase activity of anti-Lyn immune complexes incubated with MMC (p56/p53^lyn [8]): decrease in kinase activity
- increase in enolase phosphorylation (p56/p53^lyn [9]; 10^−5 M MMC, 30 min): 4.2 fold
- p56/p53^lyn activity (autophosphorylation of anti-Lyn immunoprecipitates) (p56/p53^lyn [9]; 10^−5 M MMC, 1 h): increase
- increase in enolase phosphorylation (p56/p53^lyn [9]; 10^−5 M MMC, 12 h): 4.1 fold
- p56/p53^lyn activity (phosphorylation of p56/p53^lyn and enolase) (p56/p53^lyn [9]; 10^−6 and 10^−5 M MMC, 1 h): more pronounced stimulation
- p56/p53^lyn activity (phosphorylation of p56/p53^lyn and enolase) (p56/p53^lyn [9]; 10^−8 and 10^−7 M MMC, 1 h): Increases
- pp60^c-src activity (pp60^c-src): decrease
- autophosphorylation of p59^fyn (p59^fyn): decreased

SMILES: CC(=O)N[C@@H](CS)C(=O)O [NAC, N-acetyl cysteine]
- effect on X-ray-induced p56/p53^lyn activity (p56/p53^lyn [2]; 30 mM NAC 1 hour): little effect
- effect on induction of c-jun and EGR-1 gene expression [10]: completely blocks

SMILES: COc1ccc(/C=C(\C#N)c2cccnc2)cc1OC [RG-13022]
- tumor growth (tumor [11]): suppress
- cancer cell proliferation (cancer cell): suppress

SMILES: N#C/C(=C\c1cc(Cl)cc(Cl)c1)c1cccnc1 [RG-14620, (Z)-alpha-[(3,5-dichlorophenyl)methylene]-3-pyridylacetonitrile]
- tumor growth (tumor [11]): suppress
- cancer cell proliferation (cancer cell): suppress

SMILES: N#C/C(=C\c1ccc(O)c(O)c1)C(N)=S [T47]
- pancreatic cancer cell growth (pancreatic cancer cell): inhibit pancreatic cancer cell growth

SMILES: Cc1c[nH]c2c1[C@@]13C[C@@H]1CN(C(=O)c1cc4cc(NC(=O)c5cc6ccccc6o5)ccc4[nH]1)C3=CC2=O [adozelesin]
- p56/p53^lyn and enolase phosphorylation (p56/p53^lyn [9]; 2×10^−6 M, 1 h): stimulation of p56/p53^lyn and enolase phosphorylation

SMILES: N.N.[Cl][Pt][Cl] [cis-platinum]
- p56/p53^lyn kinase activity (phosphorylation of p56/p53^lyn and enolase) (p56/p53^lyn [9]; 10^−5 M, 1 h): stimulation of the p56/p53^lyn kinase

SMILES: O=c1c(-c2ccc(O)cc2)coc2cc(O)cc(O)c12 [genistein]
- inhibitory activity against pp110^gag-fes (pp110^gag-fes): specific inhibitory activity
- effect on X-ray-induced p56/p53^lyn activity (p56/p53^lyn [2]; 10 μM inhibitor 1 hour): inhibited
- effect of pretreatment on MMC-stimulated p56/p53^lyn activity (p56/p53^lyn [9]): completely blocks
- inhibitory activity against pp60^v-src (pp60^v-src): specific inhibitory activity

SMILES: CO[C@H]1[C@@H](OC)C[C@H](C)[C@@H](OC)C2=CC(=O)C=C(NC(=O)/C(C)=C/C=C\[C@H](OC)[C@@H](OC(N)=O)/C(C)=C/[C@@H]1C)C2=O [herbimycin A]
- effect on X-ray-induced p56/p53^lyn activity (p56/p53^lyn [2]; 10 μM inhibitor 1 hour): inhibited
- effect of pretreatment on MMC-stimulated p56/p53^lyn activity (p56/p53^lyn [9]): completely blocks
- autophosphorylation of EGF-stimulated receptors (EGF-stimulated receptors): inhibit the autophosphorylation
